Assay results from ChEMBL document CHEMBL1151958, “Improving metabolic stability by glycosylation: bifunctional peptide derivatives that are opioid receptor agonists and neurokinin 1 receptor antagonists” (J Med Chem, 2009).

Tests used:
Mu-type opioid receptor = Mu-type opioid receptor (Rattus norvegicus, UniProt P33535); assay: Displacement of [3H]DAMGO from rat mu opioid receptor expressed in mouse HN9.10 cell membrane; assay type: cell membranes
Substance-P receptor [1] = biological target: Substance-P receptor (Homo sapiens, UniProt P25103); assay: Displacement of [3H]substance P from human NK1 receptor expressed in CHO cell membrane; assay type: cell membranes
[2] = biological target: Delta-type opioid receptor (Homo sapiens, UniProt P41143); assay: Displacement of [3H]DPDPE from human delta opioid receptor expressed in mouse HN9.10 cell membrane; assay type: cell membranes
Substance-P receptor [3] = biological target: Substance-P receptor (Rattus norvegicus, UniProt P14600); assay: Displacement of [3H]substance P from rat NK1 receptor expressed in CHO cell membrane; assay type: cell membranes
[4] = Metabolic stability in rat plasma assessed as half life at 37 degC; assay type: ADME, cell-free

Sequence of Mu-type opioid receptor (P33535 whole entry): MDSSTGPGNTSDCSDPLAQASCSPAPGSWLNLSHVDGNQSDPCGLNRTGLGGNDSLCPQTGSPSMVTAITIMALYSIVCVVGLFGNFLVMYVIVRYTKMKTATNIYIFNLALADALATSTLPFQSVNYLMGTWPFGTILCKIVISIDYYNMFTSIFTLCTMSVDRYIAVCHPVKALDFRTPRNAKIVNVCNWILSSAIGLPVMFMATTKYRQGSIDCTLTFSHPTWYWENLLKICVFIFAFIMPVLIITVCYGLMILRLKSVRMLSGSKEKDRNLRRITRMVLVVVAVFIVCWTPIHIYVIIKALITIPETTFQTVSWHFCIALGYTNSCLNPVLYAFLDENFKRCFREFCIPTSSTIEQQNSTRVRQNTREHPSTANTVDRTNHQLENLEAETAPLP
Sequence of Delta-type opioid receptor (P41143 whole entry): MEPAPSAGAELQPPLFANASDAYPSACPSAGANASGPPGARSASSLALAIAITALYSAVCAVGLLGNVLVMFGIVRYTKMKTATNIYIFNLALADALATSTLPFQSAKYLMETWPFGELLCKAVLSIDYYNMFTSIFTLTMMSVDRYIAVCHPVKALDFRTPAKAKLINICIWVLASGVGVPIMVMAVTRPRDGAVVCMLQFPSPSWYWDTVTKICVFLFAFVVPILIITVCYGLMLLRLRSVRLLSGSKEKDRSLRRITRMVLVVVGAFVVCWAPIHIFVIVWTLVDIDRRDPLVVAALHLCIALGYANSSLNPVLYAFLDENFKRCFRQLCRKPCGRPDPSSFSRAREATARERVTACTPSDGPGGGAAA
Sequence of Substance-P receptor (Homo sapiens, UniProt P25103) (P25103 whole entry): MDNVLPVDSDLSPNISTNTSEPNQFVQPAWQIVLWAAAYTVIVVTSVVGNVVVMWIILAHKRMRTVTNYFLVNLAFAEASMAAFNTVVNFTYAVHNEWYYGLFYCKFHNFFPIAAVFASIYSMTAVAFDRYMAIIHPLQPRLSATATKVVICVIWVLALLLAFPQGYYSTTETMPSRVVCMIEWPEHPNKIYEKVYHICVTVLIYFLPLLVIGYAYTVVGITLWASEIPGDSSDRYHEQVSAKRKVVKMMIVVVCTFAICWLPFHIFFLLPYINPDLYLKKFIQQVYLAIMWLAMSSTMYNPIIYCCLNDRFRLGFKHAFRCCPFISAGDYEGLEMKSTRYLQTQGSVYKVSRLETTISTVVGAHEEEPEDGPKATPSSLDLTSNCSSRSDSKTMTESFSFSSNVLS
Sequence of Substance-P receptor (Rattus norvegicus, UniProt P14600) (P14600 whole entry): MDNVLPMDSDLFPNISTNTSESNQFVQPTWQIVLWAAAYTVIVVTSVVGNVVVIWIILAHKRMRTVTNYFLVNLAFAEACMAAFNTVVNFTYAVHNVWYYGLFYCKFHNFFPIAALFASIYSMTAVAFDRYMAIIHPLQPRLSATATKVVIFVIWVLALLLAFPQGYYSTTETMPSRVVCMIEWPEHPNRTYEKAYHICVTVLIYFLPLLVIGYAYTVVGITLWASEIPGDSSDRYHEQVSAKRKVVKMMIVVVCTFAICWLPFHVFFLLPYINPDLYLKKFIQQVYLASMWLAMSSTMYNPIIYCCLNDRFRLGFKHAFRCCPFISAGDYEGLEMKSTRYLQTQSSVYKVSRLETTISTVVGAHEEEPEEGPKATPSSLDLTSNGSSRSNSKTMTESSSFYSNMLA

SMILES | IC50 (Mu-type opioid receptor) | IC50 (Substance-P receptor [1]) | IC50 [2] | IC50 (Substance-P receptor [3]) | half-life [4]
CCCC[C@H](NC(=O)[C@H](Cc1ccccc1)NC(=O)CNC(=O)[C@@H](C)NC(=O)[C@@H](N)Cc1ccc(O)cc1)C(=O)N[C@@H](CO[C@@H]1O[C@H](CO)[C@@H](O)[C@H](O)[C@H]1O)C(=O)N[C@@H](CC(C)C)C(=O)N[C@@H](Cc1c[nH]c2ccccc12)C(=O)NCc1cc(C(F)(F)F)cc(C(F)(F)F)c1 | 7080 nM | 4.17 nM | – | – | –
CC(C)C[C@H](NC(=O)[C@@H]1CCCN1C(=O)[C@H](CO[C@@H]1O[C@H](CO)[C@@H](O)[C@H](O)[C@H]1O)NC(=O)[C@H](Cc1ccccc1)NC(=O)CNC(=O)[C@@H](C)NC(=O)[C@@H](N)Cc1ccc(O)cc1)C(=O)N[C@@H](Cc1c[nH]c2ccccc12)C(=O)NCc1cc(C(F)(F)F)cc(C(F)(F)F)c1 | 759 nM | 0.000617 nM | 123 nM | 4.47 nM | –
CCCC[C@H](NC(=O)[C@H](Cc1ccccc1)NC(=O)CNC(=O)[C@@H](C)NC(=O)[C@@H](N)Cc1ccc(O)cc1)C(=O)N1CCC[C@H]1C(=O)N[C@@H](CC(C)C)C(=O)N[C@@H](Cc1c[nH]c2ccccc12)C(=O)NCc1cc(C(F)(F)F)cc(C(F)(F)F)c1 | – | 0.00269 nM | 2.14 nM | – | > 6 h
CCCC[C@H](NC(=O)[C@H](Cc1ccccc1)NC(=O)CNC(=O)[C@@H](C)NC(=O)[C@@H](N)Cc1ccc(O)cc1)C(=O)N1CCC[C@H]1C(=O)N[C@@H](CO[C@@H]1O[C@H](CO)[C@@H](O)[C@H](O)[C@H]1O)C(=O)N[C@@H](Cc1c[nH]c2ccccc12)C(=O)NCc1cc(C(F)(F)F)cc(C(F)(F)F)c1 | 17 nM | – | 7.94 nM | 50.1 nM | > 6 h
